The values below come from US20240277715A1, “COMBINATION THERAPIES COMPRISING A METTL3 INHIBITOR AND A FURTHER ANTICANCER AGENT” (Storm Therapeutics Limited, priority 2021, published 2024).

Where two headings read alike, the source gives them in different places.

Test [1] has as its system Kasumi1 AML cell line. Nature of the test: AML cell viability, CellTiter-Glo combination matrix, Kasumi1. As to conditions: for IC50: Homo sapiens, Kasumi 1, Kasumi1 cells. Type of test: cell-based. As to the method: (§1) The sensitivity of AML cell lines to combinations of METTL3 inhibitor and standards of care was determined as described. Dose response curves of venetoclax were determined either alone or in the presence of different concentrations of METTL3 inhibitor that are known to be active in cells.
(§2) Synergistic interactions occur when the IC50 value decreases in the presence of METTL3 inhibitor. […] Antagonistic interactions occur when the IC50 value increases in the presence of METTL3 inhibitor.
(§3) 24 h before cell treatment, homogenize, stain with Trypan blue and count viable cells using CellOMeter Auto T4. Dilute cells in media at 400 000 cells/ml to ensure an exponential growth the day after.
(§4) On treatment day, homogenize, stain with Trypan blue and count viable cells using CellOMeter Auto T4. Dilute to the proper cell seeding density according to Table 6 in cell media.
(§5) • Dispense drug (see Table 7) and METTL3 inhibitor in semi-log dose-response matrix and DMSO in 384-well plates using D300e Nanodispenser (Tecan). • 6× compound solution preparation: add 40 μL of cell medium in compound-containing plates and homogenize using the ViaFlo device (Integra) • Dispense 30 μl of cell suspension per well in three replicate 384-well white Ultra-Low-Attachment plates (Sbio) using ViaFlow device (Integra) • Transfer 6 μL of the 6× compound solution in each 30 μL cell suspension-containing plate. • Incubate at 37° C. 5% CO2 for 3 to 5 days.
(§6) • Add 35 μL CellTiter-Glo (Promega) in wells (vol/vol) using ViaFlo device (Integra). • Incubate at RT 10 min in the dark, with agitation the first minute, and read luminescence on the Ensight device (Perkin Elmer).
(§7) Raw data were converted to % viability by normalization to DMSO controls. IC50 determination was performed using GraphPad Prism and fitting curves to the standard nonlinear regression four parameter equation (Y=Bottom+(Top-Bottom)/(1+(IC50/X)^HillSlope)) least squares method, and synergy was assessed by comparison of IC50 values of the standard of care in the presence or absence of different concentrations of METTL3 inhibitor (see FIGS. 12 to 19).
(Cellular ATP, detected with luciferase, serves as a proxy for viable cell number.)

For test [2], the system named is MOLM13 AML cell line. Nature of the test: AML cell viability, CellTiter-Glo combination matrix, MOLM13. Type of test: cell-based. Particulars: for interaction with venetoclax: MOLM13 AML cell line. The procedure: as §1, §2, §3, §4, §5, §6, §7
For test [3], the system named is FLT3-mutant MOLM-14 AML cell line. Nature of the test: AML cell viability, CellTiter-Glo combination matrix, MOLM-14. Type of test: cell-based. The procedure: as §3, §4, §5, §6
Raw data were converted to % viability by normalization to DMSO controls.

The subject of test [4] is AML. Particulars: cited from earlier work.
Test [5] concerns SKOV3 human ovarian cancer cells. Nature of the test: Tumour killing assay (TKA), SKOV3 spheroid / PBMC co-culture. Particulars: STM3480 0.05 micromolar, FIG. 1 and 2. Type of test: cell-based. The procedure:
This experiment evaluates the effects of human donor Peripheral Blood Mononuclear Cells (PBMCs) to attack and kill fluorescently-labelled tumour cells in a co-culture assay. Briefly, test agents are incubated at different concentrations with SKOV3 human ovarian cancer cells in the presence or absence of human donor PBMCs and tumour growth is monitored continuously by real time imaging of the NucLight Red-labelled SKOV3 cells for several days.
NucLight Red (Incucyte, Essen Biosciences)-transduced SK-OV-3 (SK-OV-3-NLR) cells were transferred into Ultra-low attachment 96 well plates with spontaneous spheroid formation occurring over 48 hours. Peripheral blood mononuclear cells (PBMC) were isolated from healthy single donor buffy coats by density separation. Prior to co-culture of SK-OV-3-NLR spheroids with PBMC, SK-OV-3-NLR spheroids were treated with 10 ng/ml of interferon gamma (IFNγ). All treatments, including STM3480 and Pembrolizumab, were added at the point of co-culture in a final total volume of 200 μl/per well. Assay plates were transferred into an IncuCyte S3 and images were collected every 2 hours for 7 days. Following experimental completion, an analysis definition was applied to quantify the Total NLR Integrated Intensity present on a per well basis. Changes in spheroid size were quantified by plotting Total NLR Integrated Intensity against time.

Where [6] appears, read: Kasumi1, with increasing concentrations of STM3006.
Setting [7] is: Kasumi1, with increasing concentrations of STM3480.

A word on the IC50: it is the concentration that gives 50% inhibition.

As to `Nc1ncn([C@@H]2O[C@H](CO)[C@@H](O)[C@H]2O)c(=O)n1` [5′-azacitidine], the “change in IC50 of the standard of care” value in test [1] (setting [6]) and in test [1] (setting [7]) was “No change” throughout.
For the compound `CC1(C)CCC(CN2CCN(c3ccc(C(=O)NS(=O)(=O)c4ccc(NCC5CCOCC5)c([N+](=O)[O-])c4)c(Oc4cnc5[nH]ccc5c4)c3)CC2)=C(c2ccc(Cl)cc2)C1` [venetoclax, 4-{4-[(4′-chloro-5,5-dimethyl[3,4,5,6-tetrahydro[1,1′-biphenyl]]-2-yl)methyl]piperazin-1-yl}-N-(3-nitro-4-{[(oxan-4-yl)methyl]amino}benzene-1-sulfonyl)-2-[(1H-pyrrolo[2,3-b]pyridin-5-yl)oxy]benzamide], the IC50 in test [1] (in the presence of 316.2 nM STM3480, read-out: venetoclax IC50) came out at 50.9 nM; in test [1] (in the presence of 1000 nM STM3480, read-out: venetoclax IC50), 22.2 nM; in test [1] (venetoclax alone, read-out: IC50 of venetoclax) it was 238 nM. The “change in IC50 of the standard of care” value in test [1] (setting [6]) is listed as “decreasing”; in test [1] (setting [7]), “decreasing”; in test [1] (Kasumi1, with increasing concentrations of STM3675), “decreasing”; in test [2] (MOLM13, with increasing concentrations of STM3006) it was “decreasing”; in test [2] (MOLM13, with increasing concentrations of STM3480) it was “decreasing”; in test [2] (MOLM13, with increasing concentrations of STM3675), “decreasing”.
As for `Nc1ccn([C@@H]2O[C@H](CO)[C@@H](O)[C@@H]2O)c(=O)n1` [cytarabine], the “change in IC50 of the standard of care” value in test [1] (setting [6]) and in test [1] (setting [7]) was “No change” each time.
For `CC1(C)CCN(Cc2ccc3nc(Cn4cc(-c5cc(Br)cc6[nH]ncc56)nn4)cn3c2)CC1` [STM3006, 6-bromo-4-[1-({6-[(4,4-dimethylpiperidin-1-yl)methyl]imidazo[1,2-a]pyridin-2-yl}methyl)-1H-1,2,3-triazol-4-yl]-1H-indazole], in test [1] (Kasumi1, combination with daunorubicin), the “cell viability with increasing concentrations of METTL3 inhibitor” value was “decreasing viability”. For the same compound, in test [1] (Kasumi1 AML cell line), the “interaction with 5′-azacitidine” value is recorded as “additive”, the interaction with cytarabine entry is reported as “additive”, the interaction with daunorubicin entry is recorded as “additive” and the interaction with venetoclax result is on record as “synergistic”. Besides, the interaction with venetoclax entry in test [2] is “synergistic”. Moreover, in test [3] (FLT3-mutant MOLM-14 AML cell line), the interaction with quizartinib result was “additive”. In addition, the “cell viability with increasing concentrations of METTL3 inhibitor” value in test [3] (MOLM-14, combination with quizartinib) is reported as “decreasing viability”.
In the case of `O=C(NCc1cn2cc(CNCC3CCCCC3)ccc2n1)c1cc(=O)n2ccccc2n1` [STM2457], in test [4], the AML growth entry is listed as “reduction”; the differentiation and apoptosis entry is “increase”.
On to `O=C(NCc1ccc2cc(CNCC34CC(F)(C3)C4)[nH]c2c1)c1cc(=O)n2ccccc2n1` [STM3675, N-[(2-{[({3-fluorobicyclo[1.1.1]pentan-1-yl}methyl)amino]methyl}-1H-indol-6-yl)methyl]-4-oxo-4H-pyrido[1,2-a]pyrimidine-2-carboxamide], for which the interaction with venetoclax result in test [1] (Kasumi1 AML cell line) and in test [2] was “synergistic” each time.
Regarding `COc1cccc2c1C(=O)c1c(O)c3c(c(O)c1C2=O)C[C@@](O)(C(C)=O)C[C@@H]3O[C@H]1C[C@H](N)[C@H](O)[C@H](C)O1` [daunorubicin], the “change in IC50 of the standard of care” value in test [1] (setting [6]) and in test [1] (setting [7]) was “No change” throughout.
Regarding “Pembrolizumab: anti-PD1 antibody [reference compound]”, the “tumour viability (normalized NucLight Red [NLR] fluorescence) against time” value in test [5] is given as “greater decline in viable tumour cells”.
